Legend:
preferred yeast strains = assay: utilization of galactose derivatives for L-ascorbic acid formation; assay type: cell-based; conditions: compared with L-galactono-gamma-lactone
Description: The D-galactose 18 is converted by catalytic oxidation to provide D-galacturonic acid 22. Processes to carry out this oxidative step for D-sugar acids are well known in the art and have been described in U.S. Pat. No. 2,265,121 by T. Reichstein. A variety of catalytic agents, e.g., platinum or palladium catalysts may be employed to convert blocked D-galactose (acetone) to the D-galacturonic acid product. The unblocked D-galacturonic acid may then be reduced by an appropriate reduction step such as reduction with gaseous hydrogen in the presence of a suitable hydrogenation catalyst such as Raney nickel, or palladium, to produce L-galactonic acid 24. Processes to carry out this chemical reduction are well known in the art such as described by H. Isbell, J. Res. Nat. Bur. Stds., 33, 45-60 (1944). Removal of water by distillation and condensation of the desalted L-sugar acid induces the formation of L-galactono-gamma-lactone 26 which is utilized in the microbiological conversion process of the present invention to form L-ascorbic acid. […] Keto-derivatives such as 5-Keto-L-Galactonic acid, are not utilized by the preferred yeast strains particularly described herein. The L-galactono-gamma-lactone 26, ethanol 16, and suitable organic and inorganic nutrients are combined to provide a fermentation medium 28 for a selected L-ascorbic acid overproducer.

Candida norvegensis = assay: Assimilation tests (identification of the yeast); assay type: cell-based; conditions: C. norvegensis MF-56, MF-78 and parent CBS 2145
Description: The morphological, cultural and physiological characteristics of the mutant strain C. norvegensis Kraft, Inc. MF-56 ATCC 20686, the mutant strain C. norvegensis Kraft, Inc. MF-78 ATCC 20732, and the parent strain C. norvegensis CBS 2145 are consistent with the yeast description provided in The Yeasts, a taxononomic study (J. Lodder (Ed.) 1970, North Holland Publishing Co., Amsterdam) and A New Key to the Yeasts (J. A. Barnett & R. J. Parkhurst (Ed) 1974, North Holland Publishing Co., Amsterdam).

[1] = system: Candida norvegensis CBS 1911; assay: aerobic bioconversion run with ethanol carbon source; assay type: cell-based; conditions: 48 hours; for Other redox Compounds / Total Ascorbate / L-Ascorbate: 0.5% substrate; for L-Ascorbate: HPLC with electrochemical detection; for Optical Density: SMl + 1.5% ethanol + 0.5% substrate, 30° C.
Procedure: (§1) Two yeast strains, Candida norvegensis CBS 1911 and Candida utilus NRRL Y-900 are utilized with an ethanol carbon source in separate bioconversion runs with each of two different substrates, L-galactono-1,4-lactone or D-galacturonic acid-methyl ester. The bioconversion runs are carried out under aerobic conditions in a 500 milliliter low actinic flask containing 50 ml of the biconversion medium. The bioconversions were carried out at a temperature of 30° C. for 48 hours with agitation provided by a skaker operating at 200 rpm. The medium for the C. norvegensis runs was the SMl medium previously described plus 1.5% ethanol plus 0.5% substrate. The medium for the C. utilus runs were SMl plus 1.5% ethanol plus 0.2% substrate.

[2] = system: Candida utilus NRRL Y-900; assay: as above; assay type: cell-based; conditions: 48 hours; for Other redox Compounds / Total Ascorbate / L-Ascorbate: 0.2% substrate; for L-Ascorbate: HPLC with electrochemical detection; for Optical Density: SMl + 1.5% ethanol + 0.2% substrate, 30° C.
Procedure: as §1

[3] = system: L-Galactono-1,4-Lactone Oxidase; assay: L-galactono-1,4-lactone oxidase activity, comparison of yeast strains; assay type: biochemical; conditions: C. norvegensis (CBS 1911)
Procedure: An assay mixture is provided which contains 2mM L-galactono-1,4-lactone and 50 mM Na-Citrate pH 6.8 in a total volume of 3 ml. The mixture is incubated at 37° C. in a shaker bath for up to 30 minutes. The reaction is stopped by adding 0.3 ml of 50% TCA. The precipitated protein is removed by centrifugation and the supernatant is assayed for L-ascorbate by high performance liquid chromatography analysis with electrochemical detection and by 2,6,dichloroindophenol titration.
A series of 5 detergents: (1) nonylphenol POE-9 (NP-9), (2) polydet (P-40), (3) octylglucoside, (4) (3-[3-cholamindopropyl)-dimethylammonio]1-propane sulfonate (CHAPS), and (5) (3-[3-cholamindopropyl)-dimethyl ammonio]-2-hydroxy-1-propane sulfonate).2H2 O (CHAPSO) were tested. […] Biochem. & Biophys., 191, 47a (1978)].

[4] = substrate: O=C1O[C@H]([C@@H](O)CO)[C@@H](O)[C@@H]1O; assay: mitochondrial assay for L-galactono-1,4-lactone oxidase activity; assay type: biochemical, Saccharomyces Cerevisiae; conditions: other: intact mitochondrial system, substrate 0.1 mM to 50 mM; 37.0 °C
Description: Two pounds of Red Star baker's yeast (Saccharomyces Cerevisiae), which is not overproductive in L-Ascorbic acid were disrupted according to the method of Tzagoloff [J. Biol. Chem., 244, 5020 (1969)]. The frozen powder (900 gm) was transferred to 1.51 of a solution consisting of 0.4 M sucrose, 0.05 M Tris(hydroxymethyl) amino methane (Tris-HCl) pH 8.2, with one millimolar ethylene diamine tetracetic acid (EDTA). The pH of the suspension was adjusted to 7.5 with sodium hydroxide and the suspension was subsequently homogenized in a blender for 45 seconds. The homogenate was centrifuged at 2500×g for 15 minutes at 4° C. and the cell debris was discarded. The supernatant was centrifuged at 62000×g in a Shar-les centrifuge. The pellet (mitochondria) was saved and resuspended in 250 ml of a solution containing 0.25 M sucrose and 0.01 M Tris-HCl pH 7.5 and frozen.
An assay mixture is provided which contains 2mM L-galactono-1,4-lactone and 50 mM Na-Citrate pH 6.8 in a total volume of 3 ml. The mixture is incubated at 37° C. in a shaker bath for up to 30 minutes. The reaction is stopped by adding 0.3 ml of 50% TCA. […]
The specific activity of this sample was calculated to be 2.5 ×10^-3 micromoles/min/mg protein. […]

Question: How did the “utilization as substrate for L-ascorbic acid” value (preferred yeast strains) turn out when `O=C(O)[C@@H](O)[C@H](O)[C@H](O)C(=O)CO` [5-Keto-L-Galactonic acid] was run?
Answer: The value was “not utilized”.

Question: For `O=C[C@H](O)[C@@H](O)[C@H](O)CO` [D-Xylose], which “Assimilation of carbon compounds” value (Candida norvegensis) is on record?
Answer: Its value is “+ latent or”.

Question: Which “Other redox Compounds” value [1] does the source give for `COC(=O)[C@@H](O)[C@H](O)[C@H](O)[C@@H](O)C=O` [D-galacturonic acid-methyl ester] here?
Answer: Its value is 17.5 µg/mL.

Question: And the “Total Ascorbate” value [1]?
Answer: Its value is 473 ug/100 ml.

Question: And the L-Ascorbate [1]?
Answer: The L-Ascorbate was 3.5 µg/mL.

Question: And the “Optical Density” value [1]?
Answer: Its value is 2.60.

Question: And the “Other redox Compounds” value [2]?
Answer: The value was 1.3 µg/mL.

Question: And the “Total Ascorbate” value [2]?
Answer: The value was 4,383 ug/100 ml.

Question: What about the L-Ascorbate [2] of the same molecule?
Answer: The L-Ascorbate was 12.0 µg/mL.

Question: What about the “Optical Density” value [2] of the same molecule?
Answer: The value was 8.50.

Question: `O=[N+]([O-])[O-].[K+]` [KNO3] was tested. Which “Assimilation of KNO3” value (Candida norvegensis) did it give?
Answer: The value was “negative”.

Question: For `O=C(O)[C@@H](O)[C@H](O)[C@H](O)[C@@H](O)CO` [L-galactonic acid], which “utilization as substrate for L-ascorbic acid” value (preferred yeast strains) is on record?
Answer: Its value is “yields of L-ascorbic acid are reduced”.

Question: Which “Other redox Compounds” value [1] does the source give for `O=C1O[C@H]([C@@H](O)CO)[C@@H](O)[C@@H]1O` [L-galactono-1,4-lactone] here?
Answer: Its value is 10.1 µg/mL.

Question: And the “Total Ascorbate” value [1]?
Answer: Its value is 10,625 ug/100 ml.

Question: And the L-Ascorbate [1]?
Answer: The L-Ascorbate was 92.8 µg/mL.

Question: And the “Optical Density” value [1]?
Answer: Its value is 2.05.

Question: What about the “Other redox Compounds” value [2] of the same molecule?
Answer: The value was 1.8 µg/mL.

Question: And the “Total Ascorbate” value [2]?
Answer: The value was 15,905 ug/100 ml.

Question: And the L-Ascorbate [2]?
Answer: The L-Ascorbate was 50.0 µg/mL.

Question: And the “Optical Density” value [2]?
Answer: The value was 8.50.

Question: And the Km [3]?
Answer: Its Km is 1300 µM.

B1: L-galactono-1,4-lactone oxidase (Saccharomyces cerevisiae S288C) (protein)
chain: MSTIPFRKNYVFKNWAGIYSAKPERYFQPSSIDEVVELVKSARLAEKSLVTVGSGHSPSNMCVTDEWLVNLDRLDKVQKFVEYPELHYADVTVDAGMRLYQLNEFLGAKGYSIQNLGSISEQSVAGIISTGSHGSSPYHGLISSQYVNLTIVNGKGELKFLDAENDPEVFKAALLSVGKIGIIVSATIRVVPGFNIKSTQEVITFENLLKQWDTLWTSSEFIRVWWYPYTRKCVLWRGNKTTDAQNGPAKSWWGTKLGRFFYETLLWISTKIYAPLTPFVEKFVFNRQYGKLEKSSTGDVNVTDSISGFNMDCLFSQFVDEWGCPMDNGLEVLRSLDHSIAQAAINKEFYVHVPMEVRCSNTTLPSEPLDTSKRTNTSPGPVYGNVCRPFLDNTPSHCRFAPLENVTNSQLTLYINATIYRPFGCNTPIHKWFTLFENTMMVAGGKPHWAKNFLGSTTLAAGPVKKDTDYDDFEMRGMALKVEEWYGEDLKKFRKIRKEQDPDNVFLANKQWAIINGIIDPSELSD
notes: The pellet (mitochondria) was saved and resuspended in 250 ml; endogenous in cells; host or cells: mitochondria of Red Star baker's yeast (Saccharomyces cerevisiae)
Question: Which results are given for B1?
Answer: Km [4]: 1600 µM; Vmax [4]: 0.34 µmol/min

From patent US4916068A, “Bioconversion production of ascorbic acid with L-galactono-1,4-oxidase” (Kraft, Inc., priority 1984, dated 1990)
